Measured values: the supplement of paper PMC10883282

Experiments:
Experiment in all cases: relative viability vs DMSO control (72 h) (fraction); higher = more viable cells
SW982 = system: SW982
How it was run: (§1)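 Relative viability was measured with ATPLite and expressed as percent growth, averaged across up to triplicate wells. Sarcoma cell lines had been seeded in 384-well plates to reach 80–90% confluence, dosed after 24 h, and incubated 72 h at 37 °C, 5% CO2. All data were rescaled on a scale where 1 is full and 0 is none.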

SK-ES-1 = system: SK-ES-1
How it was run: as §1

VA-ES-BJ = system: VA-ES-BJ
How it was run: as §1

A204 = system: A204
How it was run: as §1

MES-SA = system: MES-SA
How it was run: as §1

CCC(=O)N1CC[C@H](Nc2ncnc3c2CN(c2cnc(OC)c(C(F)(F)F)c2)CC3)C1 [Leniolisib]
relative viability
Details	A204	MES-SA	SK-ES-1	SW982	VA-ES-BJ
0.00017 µM	1.04	0.966	1.04	1.02	1.08
0.00051 µM	1.06	0.94	1.02	1.05	1.09
0.00152 µM	1	0.932	1.07	1.05	1.05
0.00457 µM	1.04	0.934	1.02	1.05	1.04
0.01372 µM	1.03	0.936	1.04	1.06	1.02
0.04115 µM	1.02	0.906	1.05	1.06	1.06
0.1235 µM	1.01	0.922	1.01	1.02	1.01
0.3704 µM	0.986	0.895	1	1.02	1
1.111 µM	0.897	0.8678	0.999	0.985	0.984
3.333 µM	0.768	0.786	0.898	0.836	0.88
10 µM	0.579	0.585	0.741	0.678	0.645

C[C@]12O[C@H](C[C@]1(O)CO)n1c3ccccc3c3c4c(c5c6ccccc6n2c5c31)CNC4=O [Lestaurtinib]
relative viability
Details	A204	MES-SA	SK-ES-1	SW982	VA-ES-BJ
0.00017 µM	1.07	0.966	1.1	1.03	1.06
0.00051 µM	1.07	0.928	1.06	1.03	1.06
0.00152 µM	1.07	0.947	1.07	1.06	1.06
0.00457 µM	1.02	0.947	1	1.03	1.03
0.01372 µM	0.967	0.874	0.881	0.895	0.953
0.04115 µM	0.788	0.751	0.543	0.697	0.838
0.1235 µM	0.56	0.538	0.329	0.494	0.657
0.3704 µM	0.378	0.333	0.0863	0.381	0.544
1.111 µM	0.321	0.2911	0.0742	0.314	0.42
3.333 µM	0.277	0.164	0.0554	0.23	0.176
10 µM	0.118	0.00447	0.0776	0.0243	-0.00757

N#CCNC(=O)c1ccc(-c2ccnc(Nc3ccc(N4CCOCC4)cc3)n2)cc1 [Momelotinib]
relative viability
Details	A204	MES-SA	SK-ES-1	SW982	VA-ES-BJ
0.00017 µM	1.03	0.942	1.06	0.986	1.07
0.00051 µM	1.07	0.971	1.05	1.02	1.07
0.00152 µM	1.05	0.9306	1.01	1.025	1.08
0.00457 µM	1.05	0.952	1.01	1.02	1.066
0.01372 µM	1.04	0.934	0.978	0.983	1.09
0.04115 µM	1.06	0.881	0.953	1	1.07
0.1235 µM	0.993	0.84	0.914	0.987	1.04
0.3704 µM	0.774	0.786	0.781	0.841	1.03
1.111 µM	0.646	0.685	0.575	0.604	0.97
3.333 µM	0.498	0.616	0.516	0.548	0.987
10 µM	0.284	0.378	0.332	0.436	0.891

Cc1ccc(Nc2nccc(N(C)c3ccc4c(C)n(C)nc4c3)n2)cc1S(N)(=O)=O [Pazopanib]
relative viability
Details	A204	MES-SA	SK-ES-1	SW982	VA-ES-BJ
0.00017 µM	1.03	0.9224	1.02	1.04	1.04
0.00051 µM	1.06	0.925	1.001	1.01	1.05
0.00152 µM	1.06	0.931	1.02	1.03	1.07
0.00457 µM	1.03	0.934	1.03	1.03	1.05
0.01372 µM	0.977	0.933	1.02	1.05	1.06
0.04115 µM	0.928	0.928	1.02	1.05	1.07
0.1235 µM	0.611	0.922	1.02	1.03	1.08
0.3704 µM	0.348	0.95	1	1.04	1.12
1.111 µM	0.342	0.931	1.01	1.06	1.14
3.333 µM	0.294	0.824	0.916	1.016	1.12
10 µM	0.243	0.517	0.524	0.729	1.06
